# The source made the active and inactive calls.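 How the source made its calls: active means compounds giving half or more protection of infected cells from virus-caused growth loss, again on retest; inactive means the rest.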 Where a SMILES comes first, the peptide text is derived from it. The star is where a group is joined. Boc = CC(C)(C)OC(=O)*
# Test system: CEM cells HIV-1 protection, formazan growth assay
# Assay: NCI AIDS Antiviral Assay
# Settings: for IC50: measured here: growth of uninfected CEM cells
# Outline: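 Human CEM cells, uninfected and HIV-1-infected, exposed to five drug concentrations; growth measured by soluble formazan assay and scored as percent protection from infection, with protecting compounds retested.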
SMILES,EC50 [µM],IC50 [µM],outcome
OC1COc2c3ccccc3nn2C1 (configuration not stated),> 1320,871,–
CC1=C(c2cc(C(=O)Nc3cccc(C(F)(F)F)c3)nc(NC#N)n2)Sc2ccccc2N1,–,–,inactive
O=C1CCCCCCC2=C1C(Sc1ccccc1)CC2 (configuration not stated),> 200,30.9,–
O=c1cn[nH]c2ccccc12,> 741,> 741,–
CCCCC#CCC(C(=O)O)C(=O)O,> 1260,> 1260,–
Cn1c(=O)c2ncc(N)nc2n(C)c1=O,> 100,> 100,–
Cc1cccc2c1CCC21OC(=O)c2c1ccc1ccccc21 (configuration not stated),–,–,inactive
Cc1c(-c2cc3n(n2)C(c2cccs2)C(C#N)=C(c2ccccc2)N3)c(=O)n(-c2ccccc2)n1C (configuration not stated),–,–,inactive
O=C1OCCOCCOCCOC(=O)c2ccccc2SSc2ccccc21,> 200,33.9,–
NC(=O)N/N=C1\CCCc2ccccc21,> 178,> 178,–
CCCCN(CCCC)c1cc(=O)nc2ccccn12,> 200,> 200,–
C=CCN=C1N=C(C)C(C(=O)OCC)S1 (configuration not stated),> 30.2,17.8,–
COC1C(=[N+]=[N-])C(=O)NC(=O)N1C1OC(COC(c2ccccc2)(c2ccccc2)c2ccccc2)C(O)C1O (configuration not stated),> 18.2,> 18.2,–
CCCCN(CCCC)CC1CC(C(C)(C)C)CCC1O (configuration not stated),> 200,19.5,–
CN=C1SC(=Nc2ccc(N(C)C)cc2)N1C,–,–,inactive
CC1(C)COC(c2cccc3c2C(=O)c2cccc(Cl)c2-3)=N1,> 83.2,79.4,–
COc1c(-c2ccccc2)nc2ccc(Oc3ccccc3)nn12,> 56.2,> 56.2,–
CC(C(O)c1ccccc1)C(O)(C(F)(F)F)C(F)(F)F (configuration not stated),> 200,95.5,–
N#Cc1c(N)oc(-c2ccccc2)c1-c1ccccc1,–,–,inactive
C#CC(O)/C=C/C(O)CCCC(O)CC#CC(O)C#CC(O)CCCC(O)/C=C/CCCC(=O)CCCCCCCCCCCCCCCC(O)C(O)C#CC(=O)O (configuration not stated),10,53.7,–
O=c1[nH]c(Nc2ccc(F)c(Cl)c2)nc2nc[nH]c12,> 200,> 200,–
C[n+]1c2ccccc2c(CNC(CS)C(=O)O)c2ccccc21 (configuration not stated),–,–,inactive
CC1(C)CNC[C@@](C)(O)C(=O)NC(C)(C)CNC[C@](C)(O)C(=O)N1,186,> 200,–

SMILES,EC50 [µM],IC50 [µM],outcome
O=c1ccs[nH]1,> 676,6.46,–
CCN(CC)S(=O)(=O)c1ccc(Nc2nc(Cl)nc(Cl)n2)cc1,> 200,> 200,–
COc1ccc(O[C@H](COCc2ccccc2)C[C@@H]2COC(C)(C)O2)cc1,–,–,inactive
Cc1ccc(S(=O)(=O)Oc2nc3ccccc3nc2OS(=O)(=O)c2ccc(C)cc2)cc1,> 200,38.9,–
O=C1/C(=C/c2ccc([N+](=O)[O-])cc2)CCc2ccccc21,> 7.24,> 7.24,–
CCc1n[nH]c(=O)n1/N=C/c1ccc(C)cc1,> 200,158,–
O=C(NCCCN(CCCCN(CCCNC(=O)C(F)(F)F)CCCc1ccccc1)CCCc1ccccc1)C(F)(F)F,> 200,9.77,–
Sc1nc2ccccc2s1.Sc1nc2ccccc2s1.Sc1nc2ccccc2s1.Sc1nc2ccccc2s1.[Cl][Rh][Cl],> 151,2.95,–
[Cl][Ni].[NH-]C(Cc1c[nH]cn1)C(=O)O (configuration not stated),> 100,> 100,–
S=c1n(-c2ccc(Cl)cc2)c2nc3ccccc3nc(/c2=N\Nc2cc(Cl)ccc2Cl)n1-c1ccccn1,> 200,18.2,–
N#Cc1c(/N=C/c2ccccc2Cl)sc2c1CCC2,> 200,> 200,–
O=C(O)c1ccc(CS(=O)(=O)c2ccccc2)c([N+](=O)[O-])c1,> 776,575,–
CC(=O)Nc1ccc(C(O)/C(=N/N)c2nc3ccc(Cl)cc3[nH]c2=O)cc1 (configuration not stated),> 162,> 162,–
CC(C(=O)N1C(=O)N(C(=O)[C@H](C)C(O)c2ccccc2)[C@H](c2ccccc2)[C@H]1c1ccccc1)[C@@H](O)c1ccccc1 (some centres not stated),> 200,28.2,–
CC(=O)Nc1c(C#N)c2n(c1C(=O)Nc1ccc(S(N)(=O)=O)cc1)CCC2,> 200,> 200,–
CNC=O,> 200,> 200,–
O=NN/C(=C1\Nc2ccc([N+](=O)[O-])cc2NC1=O)C(O)c1ccc([N+](=O)[O-])cc1 (configuration not stated),> 234,191,–
COc1cc2c(cc1OC)C(C1C(=O)CC(C)(C)CC1=O)NCC2 (configuration not stated),–,–,inactive
O=C(O)/C(Cl)=C(Cl)/C=N/NC(=O)c1cc2ccccc2cc1O,> 102,5.75,–
O=C(Nc1ccc(Cl)cc1)c1ccccc1[Se][Se]c1ccccc1C(=O)Nc1ccc(Cl)cc1,2.95,8.51,–
CSc1nc(NC2OCC(O)C(O)C2O)c(N)c(=O)[nH]1 (configuration not stated),–,–,inactive
Cc1ccnc2c1C(=O)C1=C(OC(C)(C)CC1O)C2=O (configuration not stated),> 200,10.7,–
Cn1c(=O)[nH]c2c([nH]c(=O)c(=O)n2C)c1=O,> 200,> 200,–

SMILES,EC50 [µM],IC50 [µM],outcome
C/C(=N/OC(=O)N(C)C)c1cc(Cl)ccc1Cl,> 200,135,–
CCOC(=O)c1c(-c2ccc(OC)cc2)c(C#N)c(=S)n(C2OC(COC(C)=O)C(OC(C)=O)C(OC(C)=O)C2OC(C)=O)c1-c1ccccc1 (configuration not stated),> 200,25.7,–
C[C@@H](c1ccccc1)N1CO[C@@]2(C#Cc3ccc4c(c3)OCO4)CCC[C@@H]12,> 200,33.1,–
O=S(=O)(SC1=NCCN1)c1ccccc1,105,302,–
CC1=C(C)CC2(CC1)C(=O)NC(=O)NC2=O,> 832,> 832,–
COC(C)(C)C1(O)CCC(C)CC1=O (configuration not stated),> 100,> 100,–
CC1(C)Cc2ccccc2C(C)(Cl)C(=O)N1 (configuration not stated),191,> 200,–
C(=Nc1cnc2ccccc2c1)c1ccnc2ccccc12,> 66.1,3.55,–
CCCCOCn1c(=O)[nH]c(=O)c2ccccc21,> 200,162,–
Cc1ccc(NC(=O)/C(CC(=O)c2sc(Nc3ccccc3Cl)nc2C)=N\Nc2ccc([N+](=O)[O-])cc2[N+](=O)[O-])c(C)c1,> 200,97.7,–
O=c1c(-c2cccc3ccccc23)c(-c2cccc3ccccc23)c1=O,–,–,inactive
COc1ccc(CC2=CC(=O)C(=O)C=C2C)cc1,> 56.2,30.2,–
N#CCC(C#N)N1CCOCC1 (configuration not stated),> 200,> 200,–
CCOC(=O)c1c(C(F)(F)F)oc2c1ccc1nc3nonc3nc12,> 53.7,11,–
Cc1cn(C(C)OCCO)c(=O)[nH]c1=O (configuration not stated),> 200,> 200,–
Cc1cc(=O)oc2cc3c(cc12)CCCN3,> 33.9,> 33.9,–
COC12OCCN(C)C1=CC(=O)C1=NNC(C)C12 (configuration not stated),–,–,inactive
COc1ccc(/C(=C/n2ccnc2)C(O)c2ccc(OC)c(OC)c2)cc1OC (configuration not stated),> 126,> 126,–
Cc1c(C(=O)CC(=O)C(=O)Nc2cc(Cl)ccc2Cl)[n+](=O)c2ccccc2n1[O-],> 8.71,> 8.71,–
COC(=O)[C@H](Cc1c[nH]c2ccccc12)NP(=O)(OC)OCC1OC(n2cc(C)c(=O)[nH]c2=O)CC1N=[N+]=[N-] (some centres not stated),69.2,> 200,–
COP1(=O)OCc2cnccc2O1 (configuration not stated),> 200,> 200,–
O=C(C(/C=N/C(=S)NCc1ccccc1)=C(/O)c1ccccc1)c1ccccc1,> 200,30.9,–
CC1=C(C(=O)NNC(=O)CC#N)CC(C(=O)NNC(=O)CC#N)=C(C)N1,> 200,123,–

SMILES,EC50 [µM],IC50 [µM],outcome
CC(C(=O)N1C(=O)N(C(=O)C(C)C(O)c2ccccc2)C2CCCCC21)C(O)c1ccccc1 (configuration not stated),> 200,120,–
C=C1N(c2nc(Cl)nc(Cl)n2)c2ccccc2C1(C)C,> 200,186,–
O=c1[nH]cnc2c1sc1nc3ccccc3n12,> 200,141,–
COc1ccccc1C(C(=O)NC1CN2CCC1CC2)c1ccsc1 (configuration not stated),> 200,151,–
O=Cc1c(O)ccc2ccc(O)c(-c3c(O)ccc4ccc(O)cc34)c12,> 363,20.9,–
C[C@@H]1[C@@H](c2ccccc2)C12C(=O)NC(=O)NC2=O,> 200,> 200,–
CC1=CP(=O)(c2ccccc2)C=C(C)C1=C(Cl)Cl (configuration not stated),–,–,inactive
Cn1c(COC(=O)NC2CCCCC2)c(COC(=O)NC2CCCCC2)c2ccc3ccccc3c21,> 174,2.82,–
OCC1OC(NC(=S)NCCC(F)(F)C(F)(F)C(F)(F)C(F)(F)C(F)(F)C(F)(F)F)C(O)C(O)C1O (configuration not stated),> 200,120,–
CCN(CC)CCN(C(=O)c1ccc(F)cc1)c1ccccc1N,> 200,> 200,–
COC(=O)CCCc1ccc2c(c1)CC1(Cc3ccccc3C1)C2,> 200,> 200,–
O=C1[C@@H]2C3SC(c4ccccc43)[C@@H]2C(=O)N1c1ccccc1,–,–,inactive
COC(=O)N1C[C@@]2(C=CC3(CC2)OCCO3)c2ccccc21,> 200,3.55,–
COC(=O)C(C(=O)C(=O)NC1=C(Cl)C(=O)c2ccccc2C1=O)c1csc(-n2nc(-c3ccccc3)cc2-c2ccccc2)n1 (configuration not stated),> 11.2,> 11.2,–
CC(=O)OCC1OC(n2c3c(c(-c4ccco4)c(C#N)c2=S)CCCC3)C(OC(C)=O)C(OC(C)=O)C1OC(C)=O (configuration not stated),> 200,155,–
CCOC(=O)c1nc2ccccc2nc1Oc1cc(OC)cc(OC)c1,> 200,> 200,–
CC(C)(C)OC(=O)NC(Cc1ccccc1)C(=O)N1CCCC1C(N)=O (stereo not drawn) (Boc-Phe-Pro-NH2; configuration not given here),> 200,> 200,–
C=CCCC1CCCCNC1=S (configuration not stated),> 200,> 200,–
Cc1csc2nc3c(cnn3C)c(=S)n12,> 200,38.9,–
O=C(O)c1ccc(C(=O)c2ccccc2C(=O)O)cc1C(=O)O,19.1,> 200,–
Cc1ccc(NC(=O)C2C(=O)N(c3ccc(C)cc3)C(=O)/C2=N\NC(N)=S)cc1 (configuration not stated),> 12.6,> 12.6,–

# Reference: PubChem BioAssay AID179 (DTP/NCI, 2004)
